Results as given in patent US20230172206A1 (BASF SE, priority 2020, published 2023).

What was measured:
[1] = test system: Cercospora sojina; type: cell-based; settings: 4 ppm, 7 days after inoculation, relative to compound-free control (100%)
[2] = test system: Phakopsora pachyrhizi (F129L); test: Protective control of soybean rust on soybeans (PHAKPA P2); type: in vivo; settings: for % PHAKPA (F129L) Disease level P2 at 4 ppm: protective P2, 4 ppm; for % PHAKPA (F129L) Disease level P2 at 4 ppm / % PHAKPA (F129L) Disease level P2 at 16 ppm: F129L isolate; for % PHAKPA (F129L) Disease level P2 at 16 ppm: protective P2, 16 ppm
[3] = test system: Phakopsora pachyrhizi (F129L); test: Protective control of soybean rust on soybeans (PHAKPA P6); type: in vivo; settings: for % PHAKPA (F129L) Disease level P6 at 4 ppm: protective P6, 4 ppm; for % PHAKPA (F129L) Disease level P6 at 4 ppm / % PHAKPA (F129L) Disease level P6 at 16 ppm: F129L isolate; for % PHAKPA (F129L) Disease level P6 at 16 ppm: protective P6, 16 ppm
[4] = test system: Phakopsora pachyrhizi (wt); test: Protective control of soybean rust on detached soybean leaves (PHAKPA P1 DL), Qo inhibitor-sensitive wt isolate; type: in vivo
[5] = test system: Phakopsora pachyrhizi (F129L); test: Protective control of soybean rust on detached soybean leaves (PHAKPA P1 DL), F129L isolate; type: in vivo
[6] = test system: Alternaria solani (F129L); test: Micro titer plate test against early blight (ALTESO F129L); type: cell-based; settings: 4 ppm, 7 days after inoculation, relative to compound-free control (100%)

Structure (SMILES)	% PHAKPA (F129L) Disease level P2 at 4 ppm [2] [%]	% PHAKPA (F129L) Disease level P2 at 16 ppm [2] [%]	% PHAKPA (F129L) Disease level P6 at 4 ppm [3] [%]	% PHAKPA (F129L) Disease level P6 at 16 ppm [3] [%]	also measured
CO/N=C(/C(=O)OC)c1cccc(C)c1CO/N=C(\OC)c1cccc(C(F)(F)F)c1	–	–	–	–	Fungal growth (%) CERCSO [1]: 56%
CO/N=C(/C(=O)OC)c1cccc(C)c1CO/N=C(\C)c1ccc(-c2ccc(F)cc2)cc1C(F)(F)F [compound 425]	27	28	53	40	–
CNC(=O)/C(=N/OC)c1cccc(C)c1CO/N=C(\C)c1ccc(-c2ccc(F)cc2)cc1C(F)(F)F [compound 426]	7	1	27	10	–
CO/N=C(/C(=O)OC)c1cccc(C)c1CO/N=C(\C)c1c(Cl)cc(Cl)cc1OC(F)(F)F [compound 427]	100	90	60	47	–
CNC(=O)/C(=N/OC)c1cccc(C)c1CO/N=C(\C)c1c(Cl)cc(Cl)cc1OC(F)(F)F [compound 428]	70	11	83	20	–
CO/N=C(/C(=O)OC)c1cccc(C)c1CO/N=C(\C)c1ccc(Cl)c(Cl)c1C(F)(F)F [compound 429]	83	50	67	43	–
CO/C=C(/C(=O)OC)c1cccc(C)c1CO/N=C(\C)c1ccc(Cl)c(Cl)c1C(F)(F)F [compound 430]	22	6	37	17	–
CNC(=O)/C(=N/OC)c1cccc(C)c1CO/N=C(\C)c1ccc(Cl)c(Cl)c1C(F)(F)F [compound 431]	32	7	40	12	–
CO/C=C(/C(=O)OC)c1cccc(C)c1CO/N=C(\C)c1ccc(-c2ccc(F)cc2)cc1C(F)(F)F [compound 432]	12	0	13	3	–
CO/C=C(/C(=O)OC)c1cccc(C)c1CO/N=C(\C)c1ccc(-c2ccccc2)cc1OC(F)(F)F [compound 433]	83	67	80	57	–
CNC(=O)/C(=N/OC)c1cccc(C)c1CO/N=C(\C)c1ccc(-c2ccccc2)cc1OC(F)(F)F [compound 435]	93	57	87	60	–
CO/C=C(/C(=O)OC)c1cccc(C)c1CO/N=C(\C)c1c(Cl)cc(Cl)cc1OC(F)(F)F [compound 436]	70	15	73	27	–
CO/C=C(/C(=O)OC)c1cccc(C)c1CO/N=C(\C)c1ccccc1CC(F)(F)F [compound 437]	2	0	8	0	–
CNC(=O)/C(=N/OC)c1cccc(C)c1CO/N=C(\C)c1c(Cl)ccc(F)c1OC(F)(F)F [compound 440]	93	23	73	23	–
CNC(=O)/C(=N/OC)c1cccc(C)c1CO/N=C(\C)c1c(Cl)ccc(Cl)c1OC(F)(F)F [compound 441]	100	43	97	50	–
CO/C=C(/C(=O)OC)c1cccc(C)c1CO/N=C(\C)c1c(Cl)ccc(F)c1OC(F)(F)F [compound 442]	100	93	80	77	–
CO/C=C(/C(=O)OC)c1cccc(C)c1CO/N=C(\C)c1c(Cl)ccc(Cl)c1OC(F)(F)F [compound 444]	100	47	83	53	–

Structure (SMILES)	% PHAKPA (F129L) Disease level P2 at 4 ppm [2] [%]	% PHAKPA (F129L) Disease level P2 at 16 ppm [2] [%]	% PHAKPA (F129L) Disease level P6 at 4 ppm [3] [%]	% PHAKPA (F129L) Disease level P6 at 16 ppm [3] [%]	also measured
CO/C=C(/C(=O)OC)c1cccc(C)c1CO/N=C(\C)c1ccc(Br)cc1C(F)(F)F [compound 445]	15	1	30	2	–
CO/C=C(/C(=O)OC)c1cccc(C)c1CO/N=C(\C)c1ccc(C)cc1C(F)(F)F [compound 446]	2	0	6	0	–
CO/N=C(/C(=O)OC)c1cccc(C)c1CO/N=C(\C)c1ccc(F)c(F)c1OC(F)(F)F [compound 447]	7	0	33	1	–
CNC(=O)/C(=N/OC)c1cccc(C)c1CO/N=C(\C)c1ccc(Cl)c(F)c1OC(F)(F)F [compound 449]	33	10	57	9	–
CO/C=C(/C(=O)OC)c1cccc(C)c1CO/N=C(\C)c1ccc(F)c(F)c1OC(F)(F)F [compound 450]	3	1	4	1	–
CNC(=O)/C(=N/OC)c1cccc(C)c1CO/N=C(\C)c1ccc(F)c(F)c1OC(F)(F)F [compound 451]	1	0	2	0	–
CO/C=C(/C(=O)OC)c1cccc(C)c1CO/N=C(\C)c1ccc(Cl)c(F)c1OC(F)(F)F [compound 452]	60	6	70	14	–
CNC(=O)/C(=N/OC)c1cccc(C)c1CO/N=C(/c1ccccc1)C(F)(F)F [compound 458]	93	57	83	50	–
CNC(=O)/C(=N/OC)c1cccc(OC)c1CO/N=C(\C)c1cccc(C(F)(F)F)c1 [compound 461]	26	2	52	6	–
CO/C=C(/C(=O)OC)c1cccc(C)c1CO/N=C(\C)c1ccccc1OC(F)(F)F [compound 462]	37	6	55	10	–
CO/C=C(/C(=O)OC)c1cccc(C)c1CO/N=C(\C)c1ccc(OC(F)(F)F)cc1Cl [compound 463]	6	0	3	0	–
CO/C=C(/C(=O)OC)c1cccc(C)c1CO/N=C(\C)c1ccc(OC)cc1C(F)(F)F [compound 464]	1	0	8	0	–
Cc1cccc(-n2nnn(C)c2=O)c1COc1ccn(-c2ccc(Cl)cc2)n1 [drawing 932, reference compound]	–	–	–	–	PHAKPA P1 DL Disease level (%) Qo I-sensitive wt isolate (0 % F129L) ([4]; test concentration 0.3 ppm): 78%; PHAKPA P1 DL Disease level (%) Qo I-sensitive wt isolate (0 % F129L) ([4]; test concentration 1 ppm): 80%; PHAKPA P1 DL Disease level (%) Qo I-sensitive wt isolate (0 % F129L) ([4]; test concentration 3 ppm): 77%; PHAKPA P1 DL Disease level (%) Qo I-sensitive wt isolate (0 % F129L) ([4]; test concentration 10 ppm): 48%; PHAKPA P1 DL Disease level (%) Qo I-sensitive wt isolate (0 % F129L) ([4]; test concentration 30 ppm): 30%; PHAKPA P1 DL Disease level (%) Qo I-sensitive wt isolate (0 % F129L) ([4]; test concentration 100 ppm): 18%; PHAKPA P1 DL Disease level (%) Qo I-sensitive wt isolate (0 % F129L) ([4]; test concentration 300 ppm): 5%
Cc1cccc(-n2nnn(C)c2=O)c1COc1ccn(-c2ccc(Cl)cc2)n1 [drawing 934, reference compound]	–	–	–	–	PHAKPA P1 DL Disease level (%) Qo I-resistant F129L isolate (100 % F129L) ([5]; test concentration 0.3 ppm): 88%; PHAKPA P1 DL Disease level (%) Qo I-resistant F129L isolate (100 % F129L) ([5]; test concentration 1 ppm): 90%; PHAKPA P1 DL Disease level (%) Qo I-resistant F129L isolate (100 % F129L) ([5]; test concentration 3 ppm): 95%; PHAKPA P1 DL Disease level (%) Qo I-resistant F129L isolate (100 % F129L) ([5]; test concentration 10 ppm): 92%; PHAKPA P1 DL Disease level (%) Qo I-resistant F129L isolate (100 % F129L) ([5]; test concentration 30 ppm): 90%; PHAKPA P1 DL Disease level (%) Qo I-resistant F129L isolate (100 % F129L) ([5]; test concentration 100 ppm): 65%; PHAKPA P1 DL Disease level (%) Qo I-resistant F129L isolate (100 % F129L) ([5]; test concentration 300 ppm): 52%
CO/N=C(/C(=O)OC)c1cccc(C)c1CO/N=C(\C)c1cccc(OC(F)(F)F)c1 [drawing 940]	–	–	–	–	Fungal growth (%) ALTESO F129L [6]: 87%
CNC(=O)/C(=N/OC)c1cccc(C)c1CO/N=C(\OC)c1cccc(C(F)(F)F)c1 [drawing 950]	–	–	–	–	Fungal growth (%) CERCSO [1]: 60%
CNC(=O)/C(=N/OC)c1ccccc1CO/N=C(\C)c1cc(F)ccc1F [reference compound]	–	–	–	–	PHAKPA (F129L) Disease level (%) P2 at 16 ppm ([2]; protective, inoculation 2 days after spraying, 16 ppm, % diseased leaf area): 1%; PHAKPA (F129L) Disease level (%) P6 at 16 ppm ([3]; protective, inoculation six days after spraying, 16 ppm, % diseased leaf area): 22%
